The record followed here is patent US20030087761A1, “Synergistic active compound combinations for controlling harmful plants” (priority 2001, published 2003).

Common to all, as to format: in vivo
Data set [1] relates to APESV = Apera spica-venti (common wind grass). The experiment in a line: Field trial in winter wheat, post-emergence method: herbicidal effect on APESV. The conditions noted are these: post-emergence at middle tillering stage, evaluation 21 days after application, dose 50 g ai/ha. On the procedure: (§1) The herbicidal efficacy of the active compounds or active compound mixtures was scored visually using the treated plots in comparison to untreated control plots. The damage and development of all above-ground parts of the plants were recorded. Scoring was carried out using a percentage scale (100% effect=all plants killed; 50% effect=50% of the plants and the green parts of the plants killed; 0% effect no noticeable effect=like control plot). The scores of in each case 4 plots were averaged.
(§2) Crop plants were grown outdoors on plots under natural outdoor conditions, and seeds or rhizome pieces of typical harmful plants were laid out or the natural weed growth was utilized. Treatment with the compositions according to the invention was carried out after the harmful plants had emerged and the crop plants were, generally, at the 2- to 4-leaf stage; in some cases (as stated), application of individual active compounds or active compound combinations was carried out pre-emergence (cf. Section 1) or post-emergence (cf. Section 2) or as a sequential treatment partly pre-emergence and/or post-emergence. After the application, for example 2, 4, 6 and 8 weeks after the application, the effect of the preparations was scored visually by comparison with untreated controls (cf. scoring in Section 1). […]

The subject of data set [2] is Winter wheat. The experiment in a line: Field trial in winter wheat, post-emergence method: crop damage. The settings on record: post-emergence at middle tillering stage, evaluation 21 days after application, dose 50 g ai/ha. The procedure:
as §1, §2

Data set [3] relates to CHEAL. Nature of the data set: Field trial in corn, pre-emergence method: herbicidal effect on CHEAL. The settings on record: evaluation 36 days after application. The procedure:
as §1
(§3) Crop plants were grown outdoors on plots under natural outdoor conditions, and seeds or rhizome pieces of typical harmful plants were laid out or the natural weed growth was utilized. Treatment with the compositions according to the invention was carried out after the harmful plants had emerged and the crop plants were, generally, at the 2- to 4-leaf stage; in some cases (as stated), application of individual active compounds or active compound combinations was carried out pre-emergence (cf. Section 1) or post-emergence (cf. Section 2) or as a sequential treatment partly pre-emergence and/or post-emergence. After the application, for example 2, 4, 6 and 8 weeks after the application, the effect of the preparations was scored visually by comparison with untreated controls (cf. scoring in Section 1). In the field trial as well, the compositions according to the invention have synergistic herbicidal activity against a broad spectrum of economically important weed grasses and broad-leaved weeds. […] Moreover, the effects in essential phases of the scoring period were above the expected values according to Colby, also indicating synergism. In contrast, the crop plants were, as a consequence of the treatments with the herbicidal compositions, damaged only to a small degree, if at all.
(§4) The numbers in the columns of the table under the designations of the harmful plants and the crop plants relate to the herbicidal effects or damage to the plants in percent.

The test system of data set [4] is ECHCG. The experiment in a line: Field trial in corn, pre-emergence method: herbicidal effect on ECHCG. The settings on record: evaluation 36 days after application. On the procedure:
as §1, §3, §4

The subject of data set [5] is Corn. The experiment in a line: Field trial in corn, pre-emergence method: crop damage. On the procedure:
as §1, §3, §4

Setting [6] is: field trial, pre-emergence, evaluation 36 days after application, dose 75 g ai/ha.

Consider `CCC(F)c1nc(N)nc(C(C)c2cc(F)cc(F)c2)n1` (stereo not shown) [(A60), 2-amino-4-(1-fluoropropyl)-6-[1-(3,5-difluorophenyl)ethyl]-1,3,5-triazine], for which, in data set [1], the “APESV [effect in %]” value was 0%. Also, the “Winter wheat [damage in %]” value in data set [2] is 0%.

With `CS(=O)(=O)c1cc(C(F)(F)F)ccc1C(=O)c1cnoc1C1CC1` [(B3.4.4), isoxaflutole, reference compound], the “CHEAL [effect in %]” value in data set [3] (dose 50 g ai/ha) stood at 25%. Besides, the “ECHCG [effect in %]” value in data set [4] (dose 50 g ai/ha) is 86%. The “Corn [damage in %]” value in data set [5] (corn, in vivo, 36 days) is reported as 0%.

On to `CCC(F)c1nc(N)nc(C(C)c2ccc(F)c(Cl)c2)n1` (stereo not shown) [(A50), 2-amino-4-(1-fluoropropyl)-6-[1-(3-chloro-4-fluorophenyl)ethyl]-1,3,5-triazine], for which the “APESV [effect in %]” value in data set [1] stood at 0%. For the same compound, in data set [2], the “Winter wheat [damage in %]” value amounted to 0%.

For the compound `CCC(F)c1nc(N)nc(C(C)c2ccc(F)c(C)c2)n1` (stereo not shown) [(A20), 2-amino-4-(1-fluoropropyl)-6-[1-(3-methyl-4-fluorophenyl)ethyl]-1,3,5-triazine], the “CHEAL [effect in %]” value in data set [3] (dose 75 g ai/ha) was 20%. The “ECHCG [effect in %]” value in data set [4] (dose 75 g ai/ha) turned out to be 0%. The “Corn [damage in %]” value in data set [5] (setting [6]) was 0%.

`CC(F)c1nc(N)nc(C(C)c2ccc(F)c(F)c2)n1` (stereo not shown) [(A11), 2-amino-4-(1-fluoroethyl)-6-[1-(3,4-difluorophenyl)ethyl]-1,3,5-triazine]: the “CHEAL [effect in %]” value in data set [3] (dose 75 g ai/ha) is reported as 0%. Moreover, the “ECHCG [effect in %]” value in data set [4] (dose 75 g ai/ha) was found to be 0%. The “Corn [damage in %]” value in data set [5] (setting [6]) came out at 0%.
